Measurements reported in patent publication US20240101592A1, “COMPOSITIONS AND METHODS FOR TREATING CNS DISORDERS” (Sage Therapeutics, Inc., priority 2020, published 2024).

biological target: GABAA receptor ([35S]-TBPS binding, rat brain cortical membranes); experiment: Steroid inhibition of [35S]-TBPS binding; settings: 3 nM [35S]-TBPS, in the presence of 5 mM GABA, 90 min at room temp
Protocol: Steroid Inhibition of TBPS Binding
[^35S]-t-Butylbicyclophosphorothionate (TBPS) binding assays using rat brain cortical membranes in the presence of 5 mM GABA has been described (Gee et al, J. Pharmacol. Exp. Ther. 1987, 241, 346-353; Hawkinson et al, Mol. Pharmacol. 1994, 46, 977-985; Lewin, A. H et al., Mol. Pharmacol. 1989, 35, 189-194).
Briefly, cortices are rapidly removed following decapitation of carbon dioxide-anesthetized Sprague-Dawley rats (200-250 g). The cortices are homogenized in 10 volumes of ice-cold 0.32 M sucrose using a glass/teflon homogenizer and centrifuged at 1500×g for 10 min at 4° C. The resultant supernatants are centrifuged at 10,000×g for 20 min at 4° C. to obtain the P2 pellets. The P2 pellets are resuspended in 200 mM NaCl/50 mM Na—K phosphate pH 7.4 buffer and centrifuged at 10,000×g for 10 min at 4° C. This washing procedure is repeated twice and the pellets are resuspended in 10 volumes of buffer. Aliquots ([…]) of the membrane suspensions are incubated with 3 nM [^35S]-TBPS and […] aliquots of test drug dissolved in dimethyl sulfoxide (DMSO) (final 0.5%) in the presence of 5 mM GABA. The incubation is brought to a final volume of 1.0 mL with buffer. Nonspecific binding is determined in the presence of […] and ranged from 15 to 25%. Following a 90 min incubation at room temp, the assays are terminated by filtration through glass fiber filters (Schleicher and Schuell No. 32) using a cell harvester (Brandel) and rinsed three times with ice-cold buffer. Filter bound radioactivity is measured by liquid scintillation spectrometry. Non-linear curve fitting of the overall data for each drug averaged for each concentration is done using Prism (GraphPad). […] The concentration of test compound producing 50% inhibition (IC50) of specific binding and the maximal extent of inhibition (Imax) are determined for the individual experiments with the same model used for the overall data and then the means±SEM.s of the individual experiments are calculated.
Various compounds are or can be screened to determine their potential as modulators of [^35S]-TBPS binding in vitro. These assays are or can be performed in accordance with the above.

First: C[C@@]1(O)CC[C@H]2[C@H](CC[C@@H]3[C@@H]2CC[C@@]2(C)[C@H]3C[C@H]3C[C@H]3[C@@H]2C(=O)Cn2cc(C#N)cn2)C1 [Compound No. 1, 1-(2-((2R,4aS,4bR,6aS,7S,7aR,8aR,9aS,9bR,11aR)-2-hydroxy-2,6α-dimethyloctadecahydro-1H-cyclopropa[b]chrysen-7-yl)-2-oxoethyl)-1H-pyrazole-4-carbonitrile]
Second: C[C@@]1(O)CC[C@H]2[C@H](CC[C@@H]3[C@@H]2CC[C@]2(C)[C@H](C(=O)Cn4cc(C#N)cn4)[C@H]4C[C@H]4C[C@@H]32)C1 [Compound No. 7, 1-(2-((2R,4aS,4bR,6aS,7R,7aS,8aS,9aS,9bR,11aR)-2-hydroxy-2,6a-dimethyloctadecahydro-1H-cyclopropa[b]chrysen-7-yl)-2-oxoethyl)-1H-pyrazole-4-carbonitrile]
The IC50 of the first is lower: less than 100 nM for the first, greater than 1000 nM for the second.

`CCC[C@@]1(O)CC[C@H]2C(CC[C@@H]3[C@@H]2CC[C@@]2(C)[C@H]3[C@@H]3C[C@@H]3[C@@H]2C(=O)Nc2ccc(C#N)cn2)C1` (stereo in doubt) [Compound No. 15, (2R,4aS,4bR,6aS,7S,7aS,8aR,8bR,8cR,10aR)-N-(5-cyanopyridin-2-yl)-2-hydroxy-6a-methyl-2-propyloctadecahydrocyclopropa[4,5]cyclopenta[1,2-a]phenanthrene-7-carboxamide] and `CC(Cn1cc(C#N)cn1)[C@H]1[C@H]2C[C@H]2[C@H]2[C@@H]3CC[C@@H]4C[C@](C)(O)CC[C@@H]4[C@H]3CC[C@@]21C` (single isomer, unassigned) [Compound No. 10] cannot be ordered by IC50: less than 100 nM for the first, less than 100 nM for the second.

`COC[C@@]1(O)CC[C@H]2[C@@H](CC[C@@H]3[C@@H]2CC[C@@]2(C)[C@H]3[C@@H]3C[C@@H]3[C@@H]2[C@@H](C)Cn2nnc(C)n2)C1` [Compound No. 18, (2R,4aS,4bR,6aS,7R,7aS,8aR,8bR,8cR,10aS)-2-(methoxymethyl)-6a-methyl-7-((R)-1-(5-methyl-2H-tetrazol-2-yl)propan-2-yl)octadecahydrocyclopropa[4,5]cyclopenta[1,2-a]phenanthren-2-ol] and `COC[C@@]1(O)CC[C@H]2[C@@H](CC[C@@H]3[C@@H]2CC[C@@]2(C)[C@H]3[C@@H]3C[C@@H]3[C@@H]2[C@H](C)Cn2nnc(C)n2)C1` [Compound No. 17, (2R,4aS,4bR,6aS,7R,7aS,8aR,8bR,8cR,10aS)-2-(methoxymethyl)-6a-methyl-7-((S)-1-(5-methyl-2H-tetrazol-2-yl)propan-2-yl)octadecahydrocyclopropa[4,5]cyclopenta[1,2-a]phenanthren-2-ol] fall in the same range of IC50: 100 to 1000 nM for the first, 100 to 1000 nM for the second.

`C[C@@]1(O)CC[C@H]2[C@H](CC[C@@H]3[C@@H]2CC[C@@]2(C)[C@H]3[C@@H]3C[C@@H]3[C@@H]2[C@@](C)(O)Cn2cc(C#N)cn2)C1` (single isomer, unassigned) [Compound No. 13] and `C[C@@]1(O)CC[C@H]2[C@H](CC[C@@H]3[C@@H]2CC[C@@]2(C)[C@H]3[C@@H]3C[C@@H]3[C@@H]2[C@](C)(O)Cn2cc(C#N)cn2)C1` (single isomer, unassigned) [Compound No. 12] cannot be ordered by IC50: less than 100 nM for the first, less than 100 nM for the second.

`C[C@H](Cn1cc(C#N)cn1)[C@H]1[C@@H]2C[C@@H]2C[C@H]2[C@@H]3CC[C@@H]4C[C@](C)(O)CC[C@@H]4[C@H]3CC[C@]12C` [Compound No. 5, 1-((S)-2-((2R,4aS,4bR,6aS,7R,7aR,8aR,9aS,9bR,11aR)-2-hydroxy-2,6a-dimethyloctadecahydro-1H-cyclopropa[b]chrysen-7-yl)propyl)-1H-pyrazole-4-carbonitrile] and `C[C@@H](Cn1cc(C#N)cn1)[C@H]1[C@@H]2C[C@@H]2C[C@H]2[C@@H]3CC[C@@H]4C[C@](C)(O)CC[C@@H]4[C@H]3CC[C@]12C` [Compound No. 4, 1-((R)-2-((2R,4aS,4bR,6aS,7R,7aR,8aR,9aS,9bR,11aR)-2-hydroxy-2,6a-dimethyloctadecahydro-1H-cyclopropa[b]chrysen-7-yl)propyl)-1H-pyrazole-4-carbonitrile] cannot be ordered by IC50: less than 100 nM for the first, less than 100 nM for the second.

`C[C@@]1(O)CC[C@H]2[C@H](CC[C@@H]3[C@@H]2CC[C@@]2(C)[C@H]3C[C@H]3C[C@H]3[C@@H]2[C@](C)(O)Cn2cc(C#N)cn2)C1` [Compound No. 2, 1-((S)-2-hydroxy-2-((2R,4aS,4bR,6aS,7S,7aR,8aR,9aS,9bR,11aR)-2-hydroxy-2,6a-dimethyloctadecahydro-1H-cyclopropa[b]chrysen-7-yl)propyl)-1H-pyrazole-4-carbonitrile] and `C[C@@]1(O)CC[C@H]2[C@H](CC[C@@H]3[C@@H]2CC[C@@]2(C)[C@H]3C[C@@H]3C[C@@H]3[C@@H]2C(=O)Cn2cc(C#N)cn2)C1` [Compound No. 6, 1-(2-((2R,4aS,4bR,6aS,7S,7aS,8aS,9aS,9bR,11aR)-2-hydroxy-2,6a-dimethyloctadecahydro-1H-cyclopropa[b]chrysen-7-yl)-2-oxoethyl)-1H-pyrazole-4-carbonitrile] cannot be ordered by IC50: less than 100 nM for the first, less than 100 nM for the second.

`Cc1nnnn1C[C@H]1C[C@@H]1[C@H]1CC[C@H]2[C@@H]3CC[C@@H]4C[C@](C)(O)CC[C@@H]4[C@H]3CC[C@]12C` [Compound No. 26, (3R,5R,8R,9R,10S,13S,14S,17R)-3,13-dimethyl-17-((1R,2S)-2-((5-methyl-1H-tetrazol-1-yl)methyl)cyclopropyl)hexadecahydro-1H-cyclopenta[a]phenanthren-3-ol] and `C[C@@]1(O)CC[C@H]2[C@H](CC[C@@H]3[C@@H]2CC[C@]2(C)[C@@H]([C@@H]4C[C@H]4Cn4cc(C#N)cn4)CC[C@@H]32)C1` [Compound No. 25, 1-(((1R,2S)-2-((3R,5R,8R,9R,10S,13S,14S,17R)-3-hydroxy-3,13-dimethylhexadecahydro-1H-cyclopenta[a]phenanthren-17-yl)cyclopropyl)methyl)-1H-pyrazole-4-carbonitrile] cannot be ordered by IC50: less than 100 nM for the first, less than 100 nM for the second.

Compared with `CCC[C@@]1(O)CC[C@@]2(C)[C@@H](CC[C@H]3[C@@H]4[C@@H]5C[C@@H]5[C@H]([C@@](C)(O)Cn5cc(C#N)cn5)[C@@]4(C)CC[C@@H]32)C1` [Compound No. 14, 1-((R)-2-hydroxy-2-((2R,4aS,4bS,6aS,7S,7aS,8aR,8bS,8cR,10aS)-2-hydroxy-4a,6a-dimethyl-2-propyloctadecahydrocyclopropa[4,5]cyclopenta[1,2-a]phenanthren-7-yl)propyl)-1H-pyrazole-4-carbonitrile], `CC(Cn1cc(C#N)cn1)[C@H]1[C@H]2C[C@H]2[C@H]2[C@@H]3CC[C@@H]4C[C@](C)(O)CC[C@@H]4[C@H]3CC[C@@]21C` (single isomer, unassigned) [Compound No. 11] is lower in IC50: greater than 1000 nM for the first, less than 100 nM for the second.

Compared with `C[C@@]1(O)CC[C@@]2(C)[C@@H](CC[C@@H]3[C@@H]2CC[C@@]24C[C@@]32CC[C@@H]4C(=O)Cn2cc(C#N)cn2)C1` [Compound No. 23, 1-(2-((3R,5S,8R,9S,10S,13S,14S,17S)-3-hydroxy-3,10-dimethyltetradecahydro-1H-13,14-methanocyclopenta[a]phenanthren-17-yl)-2-oxoethyl)-1H-pyrazole-4-carbonitrile], `CC(=O)[C@H]1CC[C@@]23C[C@@]12CC[C@H]1[C@H]3CC[C@H]2C[C@](C)(O)CC[C@@]21C` [Compound No. 22, 1-((3R,5S,8R,9S,10S,13S,14S,17S)-3-hydroxy-3,10-dimethyltetradecahydro-1H-13,14-methanocyclopenta[a]phenanthren-17-yl)ethanone] is higher in IC50: less than 100 nM for the first, 100 to 1000 nM for the second. The first is the more potent here.

`CC(=O)[C@H]1[C@H]2C[C@H]2[C@H]2[C@@H]3CC[C@@H]4C[C@](C)(O)CC[C@@H]4[C@H]3CC[C@@]21C` [Compound No. 9, 1-((2R,4aS,4bR,6aS,7S,7aS,8aR,8bR,8cR,10aR)-2-hydroxy-2,6a-dimethyloctadecahydrocyclopropa[4,5]cyclopenta[1,2-a]phenanthren-7-yl)ethanone] and `C[C@@]1(O)CC[C@H]2[C@H](CC[C@@H]3[C@@H]2CC[C@@]2(C)[C@H]3[C@@H]3C[C@@H]3C[C@@H]2C(=O)Cn2cc(C#N)cn2)C1` [Compound No. 8, 1-(2-((1S,2aR,3aR,3bS,3cR,5aR,7R,9aS,9bR,11aS)-7-hydroxy-7,11a-dimethyloctadecahydro-1H-cyclopropa[c]chrysen-1-yl)-2-oxoethyl)-1H-pyrazole-4-carbonitrile] cannot be ordered by IC50: less than 100 nM for the first, less than 100 nM for the second.
